In paper PMC3351391, “Inhibition Mechanism and Model of an Angiotensin I-Converting Enzyme (ACE)-Inhibitory Hexapeptide from Yeast (Saccharomyces cerevisiae)” (PLoS ONE, 2012):
Entries after “also recorded” stand apart in the source; their conditions may differ. No end group written: not given here.

Columns and labels:
[1] = tested on: ACE; details: cited from earlier work; for mode of ACE inhibition (literature): compete with the substrate for binding to the active site
Description: In this study, we investigated the inhibition mechanism of the hexapeptide on the basis of its sequence to provide a reference for the design of drugs that target such enzymes as ACE. || To determine the inhibitory mechanism, Lineweaver-Burk plots were determined for the ACE-inhibitory peptide from yeast (TPTQQS). […] Thus, the peptide can combine with the ACE molecule to produce a dead-end complex, regardless of whether a substrate molecule is bound or not. The complex between ACE and TPTQQS can prevent the formation of the reaction product, HA. […] However, the amino acid sequence of this peptide is not in accordance with the results of structure-activity correlation studies on ACE-inhibitory peptides. […] In the present study, we demonstr ...

[2] = molecular target: T1, ACE (Oryctolagus cuniculus, UniProt P12822); experiment: ITC titration of HHL into ACE in presence of inhibitor; format: binding; details: 0.024 µmol/L ACE and 0.13 µmol/L TPTQQS titrated with 1.55 mmol/L HHL; 37°C; pH 8.3
T1 construct: purchased Sigma, USA
T1 sequence (P12822 34-1310): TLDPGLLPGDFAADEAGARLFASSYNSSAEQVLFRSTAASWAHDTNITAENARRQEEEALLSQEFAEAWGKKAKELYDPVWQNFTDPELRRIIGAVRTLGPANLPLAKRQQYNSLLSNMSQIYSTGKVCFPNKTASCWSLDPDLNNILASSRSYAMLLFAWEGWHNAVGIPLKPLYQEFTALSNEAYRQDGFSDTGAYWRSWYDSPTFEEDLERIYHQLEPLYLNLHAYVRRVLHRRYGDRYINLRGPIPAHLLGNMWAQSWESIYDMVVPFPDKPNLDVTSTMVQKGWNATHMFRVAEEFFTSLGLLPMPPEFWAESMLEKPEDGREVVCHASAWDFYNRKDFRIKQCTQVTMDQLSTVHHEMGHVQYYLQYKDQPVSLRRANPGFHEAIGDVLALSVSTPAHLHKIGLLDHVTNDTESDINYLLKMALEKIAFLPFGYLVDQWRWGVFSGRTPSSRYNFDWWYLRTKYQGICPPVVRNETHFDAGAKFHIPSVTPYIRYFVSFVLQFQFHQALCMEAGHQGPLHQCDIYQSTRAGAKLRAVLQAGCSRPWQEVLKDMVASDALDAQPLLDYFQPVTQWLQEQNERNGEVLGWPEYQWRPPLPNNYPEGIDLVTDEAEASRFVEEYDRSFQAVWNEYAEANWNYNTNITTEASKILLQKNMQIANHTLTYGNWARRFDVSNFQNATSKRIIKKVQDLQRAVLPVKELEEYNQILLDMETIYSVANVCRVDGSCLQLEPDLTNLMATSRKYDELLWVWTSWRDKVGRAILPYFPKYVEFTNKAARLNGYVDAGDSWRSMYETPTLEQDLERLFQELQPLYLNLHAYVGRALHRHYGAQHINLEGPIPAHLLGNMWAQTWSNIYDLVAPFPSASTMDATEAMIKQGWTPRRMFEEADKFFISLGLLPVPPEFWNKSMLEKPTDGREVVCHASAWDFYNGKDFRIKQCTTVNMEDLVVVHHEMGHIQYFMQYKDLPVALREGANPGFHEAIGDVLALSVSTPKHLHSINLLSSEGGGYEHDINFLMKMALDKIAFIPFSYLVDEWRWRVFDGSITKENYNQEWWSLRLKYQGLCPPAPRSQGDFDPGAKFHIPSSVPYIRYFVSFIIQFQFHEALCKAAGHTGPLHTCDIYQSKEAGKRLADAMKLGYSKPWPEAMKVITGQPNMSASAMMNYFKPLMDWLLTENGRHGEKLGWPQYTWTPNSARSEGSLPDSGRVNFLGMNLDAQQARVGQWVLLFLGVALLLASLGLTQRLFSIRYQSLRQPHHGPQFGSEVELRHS
Description: The isothermal titration calorimetry (ITC) experiments were carried out using a Nano ITC Low Volume System (TA Instruments-Waters LLC., USA) with a 190 µL cell. All of the experiments were performed at 37°C. ACE was prepared by diluting the stock solution in a buffer of the appropriate pH; the substrate was dissolved in the same buffer as the enzyme. In a control experiment, the ITC cell was filled with 0.024 µmol/L ACE (250 µL), and the ACE solution was titrated with 1.55 mmol/L HHL. The injection volume was […], and the time between two injections was 300 s during which the substrate was completely hydrolyzed. In the inhibition experiment, the ITC cell was filled with 0.024 µmol/L ACE and 0.13 µmol/L TPTQQS (250 µL), and the solution was titrated with 1.55 mmol/L HHL. The titration conditions were the same as those for the control experiment.

[3] = tested on: ACE; experiment: Inhibition kinetics of ACE (Lineweaver-Burk plots, HHL substrate); format: biochemical; details: 100 and 200 µg/mL inhibitor; HHL 0.78, 1.55, 3.10 mM; Na-borate pH 8.3; 37°C
Description: The determination of ACE-inhibitory activity was performed using a High Performance Liquid Chromatography (HPLC) method, modified from a spectrophotometric method. HHL (Sigma, USA) was dissolved in 0.1 mol/L Na-borate buffer (pH 8.3) containing 1.55 mmol/L NaCl. ACE (Sigma, USA) was dissolved in the same buffer at a concentration of 0.2 U/mL. A mixture containing 10 µL of inhibitor and 5 µL of ACE solution was incubated at 37°C for 5 min, 50 µL of HHL solution was added, and the solution was incubated for 1 h. The reaction was stopped by adding 100 µL of 0.1% trifluoroacetic acid (TFA) (Sigma, USA). The amount of hippuric acid (HA) yielded by ACE catalysis was measured by RP-HPLC (GX-281, Gilson, France) with an octadecylsilyl (ODS) column (4.6 mm×250 mm, 5 µm, Agilent, USA). […] The effluent was monitored at 228 nm. The ACE-inhibitory activity was calculated using Equation (1) as follows: [drawing 1] […]
Inhibition kinetics of TPTQQS- Various substrate (HHL) concentrations (0.78 mM, 1.55 mM, and 3.10 mM) were incubated with the ACE solution in the presence or absence of 100 µg/mL, of 200 µg/mL TPTQQS at 37°C. The ACE-inhibitory activity was determined as described as described in the “Assay of ACE-inhibitory activity". The kinetics of ACE in the presence of the inhibitory peptide was determined using Lineweaver-Burk plots.

[4] = tested on: ACE; experiment: Assay of ACE-inhibitory activity (HPLC, hippuric acid from HHL); format: biochemical; details: peptide 0.25 mmol/L (Fig. 4); HHL substrate, 0.1 mol/L Na-borate buffer pH 8.3; 5 min pre-incubation, 1 h at 37°C; RP-HPLC of HA at 228 nm
Description: The determination of ACE-inhibitory activity was performed using a High Performance Liquid Chromatography (HPLC) method, modified from a spectrophotometric method. HHL (Sigma, USA) was dissolved in 0.1 mol/L Na-borate buffer (pH 8.3) containing 1.55 mmol/L NaCl. ACE (Sigma, USA) was dissolved in the same buffer at a concentration of 0.2 U/mL. A mixture containing 10 µL of inhibitor and 5 µL of ACE solution was incubated at 37°C for 5 min, 50 µL of HHL solution was added, and the solution was incubated for 1 h. The reaction was stopped by adding 100 µL of 0.1% trifluoroacetic acid (TFA) (Sigma, USA). The amount of hippuric acid (HA) yielded by ACE catalysis was measured by RP-HPLC (GX-281, Gilson, France) with an octadecylsilyl (ODS) column (4.6 mm×250 mm, 5 µm, Agilent, USA). The mobile phase was 60% methanol (V/V) containing 0.1% TFA at a flow rate of 0.8 mL/min. The effluent was monitored at 228 nm. The ACE-inhibitory activity was calculated using Equation (1) as follows: [drawing 1] (1) where A is the content of HA generated in the presence of an ACE inhibitor, B is the content of HA generated without an ACE inhibitor, and C is the content of HA generated without ACE.

NCCCC[C@H](N[C@@H](CCc1ccccc1)C(=O)O)C(=O)N1CCC[C@H]1C(=O)O [lisinopril]
mode of ACE inhibition (literature) [1]: Competitive inhibition

CCOC(=O)[C@H](CCc1ccccc1)N[C@@H](C)C(=O)N1CCC[C@H]1C(=O)O [enalapril]
mode of ACE inhibition (literature) [1]: Competitive inhibition

TPTQQS [TPTQQS]
affinity of HHL for ACE in the presence of inhibitor, ITC [2]: the same as that in the control experiment
mode of ACE inhibition by ITC [2]: non-competitive
mode of ACE inhibition (Lineweaver-Burk) [3]: non-competitive inhibitor
inhibition rate [4]: 72.55%
ACE-inhibitory activity (literature, in words) ([1]; isolated from hydrolyzed yeast protein): effective ACE-inhibitory peptide; also recorded: highly active

C[C@H](CS)C(=O)N1CCC[C@H]1C(=O)O [captopril]
mode of ACE inhibition (literature) [1]: Competitive inhibition
